Reference: patent US20240417429A1, “COMPOSITIONS AND METHODS FOR SKIPPING EXON 45 IN DUCHENNE MUSCULAR DYSTROPHY” (Entrada Therapeutics, Inc., priority 2021, published 2024)

Legend:
[1] = system: exon 45; conditions: RMS cells, 24 hr incubation; for Exon Skipping Efficacy (%) with 5 μM AC: 5 μM AC with Endo-Porter; for Exon Skipping Efficacy (%) with 10 μM AC: 10 μM AC with Endo-Porter
Method: Cell Culture and Treatment: This study eruploys human rhabdomyosarcorna cells (RMS cells, ATCC CRL-2061. RMS cells were cultured in T75 flasks in RP 11640 (ATCC) medium with addition of 10% FBS (VWR) and Ix Penicillin-Streptormycin (VWR) under conditions of 37° C. and 5% CO2. 1×10^5 RMS cells were seeded per well in RPMII 640 full medium in 24-well plates for overnight. The next day the culture medium was replaced with 1 mL. fresh medium 5 μM or 10 μM of an AC from Table 8 was added to the cell culture and swirled to mix. Subsequently, 6 μL of Endo-Porter (Gene-tools) was added to the cell culture per well (1 mL of culture medium) and immediately swirled to mix. […] The cells were allowed to stand at room temperature for 5 minutes for cell lysis and pipetted a few times for a thorough mix. The lysates were collected in the Sample Tube RB (QIAGEN).
RNA Extraction: The RNA was extracted using QIAcube following the protocol from the manufacture. The concentration of the total RNA was determined using a NanoDrop 8000 (Thermo Fisher Scientific).
Nested PCR: Nested PCR was performed with 200 ng of the extracted total RNA and QIAGEN OneStep RT-PCR Kits for the primary amplification. A reaction solution of 50 μL was prepared following manufacture's protocol with DMD specific primers
The RT-PCR program used is as follows:
The secondary amplification PCR reaction was prepared using OneTaq® Hot Start 2X Master Mix following manufacture's protocol
Gel Electrophoresis Analysis for Exon Skipping Efficiency: 4 μL of the PCR product above was analyzed by 2% E-gel (Invitrogen′™) and imaged with E-Gel™ Power Snap Electrophoresis System (Thermo Fisher Scientific). The intensities of the skipped and full-length bands were analyzed. The polynucleotide level “A” of the band with exon 45 skipping and the polynucleotide level “B” of the band without exon 45 skipping were measured using ImageJ. 181 Based on these measurement values of “A” and “B”, the skipping efficiency was determined by the following equation: Skipping efficiency (%)=A/(A+B)'100.

[2] = system: D2/MDX mice; conditions: PMO only, Q2W IV; 2 to 12 weeks
[3] = system: D2/MDX mice; conditions: Q2W IV; 4, 8 and 12 weeks post-treatment
Method: Serum CK was determined at 4 time points: pre-dose, and at 4, 8 and 12 weeks.

[4] = system: D2/MDX mice; conditions: Q2W IV; at 12 weeks vs pre-dose
Method: Grip strength was measured at pre-dose (FIG. 11A) and at 12 weeks (FIG. 11B).

Substance | Exon Skipping Efficacy (%) with 5 μM AC [1] | Exon Skipping Efficacy (%) with 10 μM AC [1] | Wire hang time, PMO treatment alone [2] | Serum CK [3] | Grip strength [4]
5′-AATGCCATCCTGGAGTTCCTG-3′ [D45-21mer-n3] | 41.8% | 52.7% |  |  | 
5′-ATGCCATCCTGGAGTTCCTGT-3′ [D45-21mer-n4] | 42.6% | 52.0% |  |  | 
5′-ATGCCATCCTGGAGTTCCTGTA-3′ [D45-22mer-n5] | 36.8% | 50.9% |  |  | 
5′-CAATGCCATCCTGGAGTTCCTGT-3′ [D45-23mer-n4] | 35.3% | 45.3% |  |  | 
5′-CCCAATGCCATCCTGGAGTTCC-3′ [D45-22mer-n1] | 45.1% | 62.3% |  |  | 
5′-CCCAATGCCATCCTGGAGTTCCT-3′ [D45-23mer-n2] | 46.4% | 58.2% |  |  | 
5′-CCCAATGCCATCCTGGAGTTCCTG-3′ [D45-24mer-n3] | 44.2% | 52.3% |  |  | 
5′-CCCAATGCCATCCTGGAGTTCCTGT-3′ [D45-25mer-n4] | 37.6% | 42.6% |  |  | 
5′-CCGCTGCCCAATGCCATCCTG-3′ [D45-21mer-6] | 45.9% | 59.5% |  |  | 
5′-CCGCTGCCCAATGCCATCCTGGAG-3′ [D45-24mer-3] | 37.2% | 40.8% |  |  | 
5′-GCCCAATGCCATCCTGGAGTTCC-3′ [D45-23mer-n1] | 39.6% | 54.4% |  |  | 
5′-GGCCAAACCTCGGCTTACCTGAAAT-3′ [PMO-MDX23] |  |  | following the same trends as the vehicle D2.mdx group | no significant decrease | no significant improvement
5′-TGCCCAATGCCATCCTGGAGTTCCT-3′ [D45-25mer-n2] | 44.0% | 48.8% |  |  | 
